The target of one data set is T1, hKv7.3/5 (Homo sapiens, UniProt O43525+Q9NR82).
T1 construct: expressed in transfected cells; host or cells: CHO
As to the kind of experiment: Kv7.3/5 HCS, FLIPR potassium assay. The data set is classed as cell-based. How it is done: (§1) Cell culture: Chinese hamster ovary (CHO) cell-line cells were cultured in F-12 nutrient mixture (Biological Industries) supplemented with 10% fetal bovine serum with 1% penicillin-streptomycin (Biological Industries) in a humidified 5% CO2 incubator at 37° C. To express the appropriate gene either Kv7.3/5, Kv7.4 or TRPA1 5 μg plasmid was transfected using Amaxa, DT-133 program, with p-3 Kit.
(§2) Kv7.3/5 and 7.4HCS using FLIPR Potassium Assay Kit: Kv7.3/5 and 7.4 HCS using the FLIPR Potassium Assay Kit was performed similarly to the Kv7.2/3 HCS, except that the Tecan Spark plate-reader injectors were primed with Tl+(1 mM Tl2SO4) or Tl++K+(1 mM Tl2SO4; 5 mM K2SO4) for Kv7.3/5, or Tl+(1 mM Tl2SO4) or Tl++K+(1 mM Tl2SO4; 10 mM K2SO4) for Kv7.4 for channel activation and data correction.
(§3) FLIPR Potassium Assay Kit: The FLIPR Potassium Assay Kit (R8222 FLIPR Potassium Assay Explorer Kits, Molecular Devices) was used with transfected CHO cells.
(§4) According to optimization process, to achieve a uniform and consistent screening condition of molecules, the following protocol was established: 2 days following transfection cells were seeded in 384-well, black-walled, clear-bottomed, at a density of 5,000 cells per well 24 hours before the assay conductance and incubated overnight in their normal growth medium. On the experiment day the medium was replaced with HBSS, HEPES, and the tested compound/vehicle (0.2% DMSO). Dye solution (prepared according to the manufacturer) was added to the wells and plates were incubated for 1.5 hour light-protected in room temperature. The Tecan Spark plate-reader injectors were primed with Tl+(1 mM Tl2SO4) or Tl++K+(1 mM Tl2SO4; 5 mM K2SO4) for Kv7.3/5 channel activation and data correction or Tl+(1 mM Tl2SO4) or Tl++K+(1 mM Tl2SO4; 10 mM K2SO4) for Kv7.4 for channel activation and data correction. […] To calculate IC50 values, the data was fitted to sigmoidal regression using Prism GraphPad.

Another data set concerns the target T2, hKv7.4 (Homo sapiens, UniProt P56696).
T2 construct: expressed in transfected cells; host or cells: CHO
Kind of data set: Kv7.4 HCS, FLIPR potassium assay. It is filed as cell-based. The procedure: as §1, §2, §3, §4

Another data set in a line: Rat pharmacokinetics. The note with it: for clearance: read-out: PK: Cl; for bioavailability: po, 10 mg/kg; for half-life: read-out: PK: T1/2 (converted). It is filed as in vivo. How it is done: The pharmacokinetic (PK) properties of test compound following single intravenous (IV) bolus and oral gavage (PO) administration in male Sprague-Dawley (SD) rats were determined in this study.
Test compound administration: Six male Sprague Dawley (SD) rats were divided into two designated groups, Group 1 and Group 2, each composed of three rat subjects. Group 1 animals were subjected to a single intravenous bolus administration of the test compound at a dosage of 1 mg/kg. Group 2 animals were administered with the test compound orally in a single dose, at a concentration of 10 mg/kg. Throughout the study, the animals had unhindered access to food. The test compound was administered at a concentration of 0.5 mg/mL and dose volume of 2 mL/kg for Group 1, and at a concentration of 1 mg/mL and dose volume of 10 mL/kg, for Group 2.
Sample extraction and analysis: Plasma samples were systematically collected at varying time points of 0.083 (only for Group 1), 0.25, 0.5, 1, 2, 4-, 6-, 8-, and 24-hours post-dose. LC-MS/MS was used to determine the test compound's concentration within the collected plasma samples. Data reflecting plasma concentration in correlation to time were graphically represented and subjected to a non-compartmental analysis using the Phoenix WinNonlin 6.3 software program. The resulting pharmacokinetic parameters, including Clearance (Cl), Volume of distribution at steady state (Vdss) and initial concentration (C0) for intravenous administration; peak concentration (Cmax), time of peak concentration (Tmax), and bioavailability (% F) for extravascular administration; and half-life (T1/2), Area Under Curve from time zero to time t (AUC(0-t)), Area Under Curve from time zero to infinity (AUC(0-inf)), Mean Residence Time from time zero to time t (MRT(0-t)), Mean Residence Time from time zero to infinity (MRT(0-inf)) for all routes, were systematically calculated.

The nature of data set [1]: Metabolite identification (Met-ID), human hepatocytes. It is filed as in vitro ADME. The procedure:
Cell culture and incubation: Cryopreserved hepatocyte cells, from human and rat sources, were purchased from commercial sources or in-house production, and were cultured in Williams' Medium E supplemented with glutamine and HEPES, in a humidified 5% CO2 incubator at 37° C., to a cell density of […]. Then, solutions of test compounds at a concentration of 10 μM, or 7-Ethoxycoumarin, as a positive control, at a concentration of 30 μM, in Eagle's Minimum Essential Medium, Catalog No. 30-2003 (ATCC) supplemented with 20% fetal bovine serum, were introduced and the mixture was incubated for 120 minutes, or other specified time points.
The samples were analyzed for metabolites using an LC-MS method developed on […] and PDA systems. Comparative analyses of mass spectra and ion fragmentation between the parent compound and its metabolites were carried out, and metabolic profiling was determined using the mass spectrometric and/or PDA (UV) response. Hypothetical structures of metabolites and their metabolic pathways were proposed.

Another data set is described as follows: HepG2 toxicity, ATPlite. It is filed as cell-based, human. The note with it: human, hepg2 cells; 48 hours; read-out: HepG2 Toxicity LD50. How it is done: Cell culture: HepG2 cell-line cells were cultured in EMEM (ATCC 30-2033) medium supplemented with 10% fetal bovine serum (Biological Industries) in a humidified 5% CO2 incubator at 37° C.
ATPlite™ 1step Kit: ATPlite™ 1step kit (PerkinElmer) was used in a 384-wells format to assess potential liver toxicity using HepG2 cells. This is an ATP detection system based on firefly luciferase luminescence for the quantitative evaluation of proliferation and cytotoxicity of cells. ATP is a marker for cell viability because it is present in all metabolically active cells and its concentration declines very rapidly when the cells undergo necrosis or apoptosis.
According to an optimization process done to achieve uniform and consistent screening condition of molecules, the following protocol was established: Cells were seeded in 384-well, black-walled, clear-bottomed, at a density of 4000 cells per well […] and incubated overnight in their normal growth medium. On day two (48 hours before viability measurement), the tested compounds and the positive control were applied to the wells according to the plate design. […] 48 hours later, reconstituted lyophilized substrate solution was added to each well and the sealed 384-well microplate was mixed for 2 minutes at 1100 rpm in an orbital microplate and plates were incubated for 10 minutes in the dark at room temperature. Right after, luminescence was measured in the Tecan plate reader. To estimate the LD50 and LD25 values the data was fitted to sigmoidal regression using Prism-GraphPad. […]
(Cellular ATP, detected with luciferase, serves as a proxy for viable cell number.)

The mark [2] stands for this setting: rat, plasma, read-out: PK: Oral BA.

Read-outs that look alike come from different tables or passages of the source.

T2 sequence (P56696 whole entry): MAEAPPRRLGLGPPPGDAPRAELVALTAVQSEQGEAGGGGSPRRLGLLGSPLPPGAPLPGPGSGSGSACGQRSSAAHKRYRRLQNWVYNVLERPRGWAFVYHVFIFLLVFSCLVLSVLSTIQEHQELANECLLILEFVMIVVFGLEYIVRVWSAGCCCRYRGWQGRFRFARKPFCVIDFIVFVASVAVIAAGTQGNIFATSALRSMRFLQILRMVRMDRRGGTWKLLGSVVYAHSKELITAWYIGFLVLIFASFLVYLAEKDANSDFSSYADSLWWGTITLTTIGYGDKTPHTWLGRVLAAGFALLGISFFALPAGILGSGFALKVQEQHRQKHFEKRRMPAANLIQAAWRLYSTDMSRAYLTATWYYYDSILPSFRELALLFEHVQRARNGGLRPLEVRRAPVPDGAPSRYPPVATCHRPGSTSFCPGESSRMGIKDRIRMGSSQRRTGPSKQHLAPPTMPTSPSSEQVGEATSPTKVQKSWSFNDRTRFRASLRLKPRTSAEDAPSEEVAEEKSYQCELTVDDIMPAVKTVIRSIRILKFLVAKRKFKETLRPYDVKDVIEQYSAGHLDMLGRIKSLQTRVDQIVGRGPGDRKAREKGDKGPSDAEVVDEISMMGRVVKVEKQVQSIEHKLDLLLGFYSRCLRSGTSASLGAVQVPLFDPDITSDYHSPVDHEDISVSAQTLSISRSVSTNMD
T1 sequence (O43525 whole entry): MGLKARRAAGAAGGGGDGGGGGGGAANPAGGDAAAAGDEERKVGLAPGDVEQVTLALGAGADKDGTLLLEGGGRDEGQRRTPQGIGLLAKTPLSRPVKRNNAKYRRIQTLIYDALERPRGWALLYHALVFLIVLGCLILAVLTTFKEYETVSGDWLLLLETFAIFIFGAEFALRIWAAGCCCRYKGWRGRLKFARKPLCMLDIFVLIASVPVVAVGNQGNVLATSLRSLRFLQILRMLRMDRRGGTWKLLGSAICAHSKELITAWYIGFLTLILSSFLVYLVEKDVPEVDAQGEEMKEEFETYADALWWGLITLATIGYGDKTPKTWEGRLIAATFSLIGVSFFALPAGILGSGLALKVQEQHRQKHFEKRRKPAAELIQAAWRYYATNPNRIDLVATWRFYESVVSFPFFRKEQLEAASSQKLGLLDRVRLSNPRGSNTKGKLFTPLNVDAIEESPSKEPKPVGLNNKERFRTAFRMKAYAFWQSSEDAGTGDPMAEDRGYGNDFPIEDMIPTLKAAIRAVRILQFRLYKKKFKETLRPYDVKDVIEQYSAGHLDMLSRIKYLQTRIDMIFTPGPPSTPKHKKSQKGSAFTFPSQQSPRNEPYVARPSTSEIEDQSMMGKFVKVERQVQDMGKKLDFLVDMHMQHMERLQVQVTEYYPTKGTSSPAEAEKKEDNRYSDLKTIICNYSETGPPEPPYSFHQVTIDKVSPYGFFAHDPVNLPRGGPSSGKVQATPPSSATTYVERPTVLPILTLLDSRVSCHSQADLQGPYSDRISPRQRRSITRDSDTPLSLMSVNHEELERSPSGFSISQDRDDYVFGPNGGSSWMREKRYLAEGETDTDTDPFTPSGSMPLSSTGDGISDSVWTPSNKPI
T1 sequence (Q9NR82 whole entry): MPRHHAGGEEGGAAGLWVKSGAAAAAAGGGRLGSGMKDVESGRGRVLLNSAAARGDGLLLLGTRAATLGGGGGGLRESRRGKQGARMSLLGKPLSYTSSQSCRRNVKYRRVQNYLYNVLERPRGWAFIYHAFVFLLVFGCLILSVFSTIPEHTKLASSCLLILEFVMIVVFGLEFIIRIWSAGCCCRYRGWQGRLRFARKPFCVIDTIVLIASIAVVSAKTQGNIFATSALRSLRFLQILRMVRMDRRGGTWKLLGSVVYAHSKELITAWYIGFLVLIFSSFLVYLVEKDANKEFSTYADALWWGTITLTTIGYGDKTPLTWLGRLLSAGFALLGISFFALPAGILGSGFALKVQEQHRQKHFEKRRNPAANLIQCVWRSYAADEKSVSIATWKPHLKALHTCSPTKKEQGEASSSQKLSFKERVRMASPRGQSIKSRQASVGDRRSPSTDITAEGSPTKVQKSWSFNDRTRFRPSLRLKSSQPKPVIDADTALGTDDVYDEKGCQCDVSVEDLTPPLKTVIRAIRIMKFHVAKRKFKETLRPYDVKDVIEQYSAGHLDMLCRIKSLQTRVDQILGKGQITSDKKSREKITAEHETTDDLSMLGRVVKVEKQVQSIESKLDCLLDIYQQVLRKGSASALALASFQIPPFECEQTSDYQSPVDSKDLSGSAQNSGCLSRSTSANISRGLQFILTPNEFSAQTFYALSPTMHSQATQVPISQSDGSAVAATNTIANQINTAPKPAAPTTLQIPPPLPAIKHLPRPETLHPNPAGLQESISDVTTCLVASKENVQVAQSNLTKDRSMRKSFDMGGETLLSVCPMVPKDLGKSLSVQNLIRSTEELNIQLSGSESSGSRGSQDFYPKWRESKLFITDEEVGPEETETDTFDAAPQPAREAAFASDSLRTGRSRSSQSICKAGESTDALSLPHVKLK

In the case of `O=C(Cc1nccc(-n2cc(Cl)c3cc(Cl)cc(Cl)c32)n1)NC1COCC1O` (centres unmarked) [Compound 760], the EC50 at hKv7.3/5 (Thallium ions (Tl+) fluorescence, read-out: hKv7.3/5 EC50) turned out to be 10.7 µM; on hKv7.4 (Thallium ions (Tl+) fluorescence, read-out: hKv7.4 EC50), 46.2 µM. For the same compound, the “Kv7.4 activity” value on hKv7.4 is “lacks any effect on hERG and Kv7.3/4/5 activity below 10 μM”. In “Rat pharmacokinetics” (rat, plasma, iv, 1 mg/kg), the clearance was found to be 60.1 mL/min/kg. Moreover, in the data set “Rat pharmacokinetics” (rat, plasma, iv, 1 mg/kg, read-out: Volume of distribution at steady state (Vdss)), the Vd worked out at 2.37 L/kg. Moreover, the bioavailability in the data set “Rat pharmacokinetics” (rat, plasma, read-out: Oral bioavailability) stood at 48.6%. The half-life in the data set “Rat pharmacokinetics” (rat, plasma) was 2.68 h. Moreover, in data set [1] (human hepatocytes), the “Human Hepatocytes MetID (glutathione conjugation)” value was “did not indicate the presence of glutathione conjugation and None”.

For `O=C(Cc1cc(-n2cc(Cl)c3cc(Cl)cc(Cl)c32)ccc1F)NCCO` [Compound 627], the values for the EC50 at hKv7.3/5 (read-out: Kv7.3/5 EC50 HCS) and on hKv7.4 (read-out: Kv7.4 EC50 HCS) were over 0.6 µM and 88 µM, respectively. The CC50 at 48 h in “HepG2 toxicity, ATPlite” amounted to 3.37 µM. Also, the clearance in the data set “Rat pharmacokinetics” (rat, plasma, iv, 1 mg/kg) was 65.8 mL/min/kg. The bioavailability in “Rat pharmacokinetics” (setting [2]) was 25.3%. Further, the half-life in “Rat pharmacokinetics” (rat, plasma) is 1.48 h.

As for `O=C(Cc1ccnc(-n2cc(Cl)c3cc(Cl)cc(Cl)c32)n1)N[C@@H]1COC[C@H]1O` [Compound 820], in data set [1] (human hepatocytes), the “Human Hepatocytes MetID (glutathione conjugation)” value is “did not indicate the presence of glutathione conjugation and None”.

As to `Cc1cn(-c2ccc(F)c(CC(=O)NCC(C)(C)O)c2)c2c(Cl)cc(Cl)cc12` [Compound 421], the EC50 at hKv7.3/5 (read-out: Kv7.3/5 EC50 HCS) was 3 µM; at hKv7.4 (read-out: Kv7.4 EC50 HCS), over 2 µM. The CC50 at 48 h in the data set “HepG2 toxicity, ATPlite” is over 1 µM. For the same compound, in “Rat pharmacokinetics” (rat, plasma, iv, 1 mg/kg), the clearance was 38.5 mL/min/kg. The bioavailability in the data set “Rat pharmacokinetics” (setting [2]) turned out to be 10.6%.

`O=C(Cc1cncc(-n2cc(Cl)c3cc(Cl)cc(Cl)c32)c1)N[C@@H]1COC[C@H]1O` [Compound 661]: the EC50 turned out to be 40.9 µM at hKv7.3/5 (read-out: Kv7.3/5 EC50 HCS) and 49.3 µM at hKv7.4 (read-out: Kv7.4 EC50 HCS). Further, on hKv7.4, the “Kv7.4 activity” value is “no measurable activity at any concentration tested”. Further, the CC50 at 48 h in the data set “HepG2 toxicity, ATPlite” is over 16.6 µM. The “Multiple of free plasma exposure over IC50 (rat DRG)” value in the data set “Rat pharmacokinetics” (10 mg/kg oral) came out at 30 fold. In addition, in “Rat pharmacokinetics” (10 mg/kg oral, 8 hours), the “Free plasma exposure, fu plasma C8 hour” value came out at 0.09 nM. The “Dose from which efficacious levels are expected” value in “Rat pharmacokinetics” (oral, extrapolated from 10 mg/kg) was 2 mg/kg. Besides, in “Rat pharmacokinetics” (rat, plasma, iv, 1 mg/kg), the clearance stood at 35.7 mL/min/kg. Besides, the bioavailability in the data set “Rat pharmacokinetics” (setting [2]) is 28.8%. Besides, the half-life in the data set “Rat pharmacokinetics” (rat, plasma) is 2.49 h. In data set [1], the “Metabolites M1-M7 (glutathione conjugation), share of identified metabolites” value is recorded as 2.09%.

Consider `O=C(Cc1cc(-n2cc(C(F)(F)F)c3cc(Cl)cc(Cl)c32)ncn1)NCCO` [Compound 843], for which the clearance in “Rat pharmacokinetics” (rat, plasma, iv, 1 mg/kg) is 6.6 mL/min/kg. In addition, the bioavailability in the data set “Rat pharmacokinetics” (setting [2]) was 73.4%. In data set [1] (human hepatocytes), the “Human Hepatocytes MetID” value came to 0.2% and the “Human Hepatocytes MetID (glutathione conjugation)” value is recorded as “did not indicate the presence of glutathione conjugation”.
